Results from patent publication US20220332726A1, “NITROXIDE DERIVATIVE OF ROCK KINASE INHIBITOR” (VIVAVISION (SHANGHAI) LTD, priority 2020, published 2022).

Target: ROCK2 (Homo sapiens, UniProt O75116)
Experiment: ROCK2 kinase inhibitor activity test (HTRF)
Format: biochemical
Settings: ROCK2 1 nM, substrate 500 nM, ATP 6 uM, 1.5 hours at room temperature, read-out: ROCK2 kinase inhibitor activities (IC50)
Experimental: ROCK2 Kinase Inhibitor Activity Test
1) 4× ROCK2 reaction solution, 4×ATP reaction solution, 4× substrate solution, and 4× compound solution were prepared according to experimental requirements.
2) 2.5 μL of 4× kinase solution and 2.5 μL of diluted 4× test compound solutions with different concentration gradients were added to a 384-well plate. 2 replicate wells were provided for each concentration, and an enzyme solution blank control group and a negative control group (DMSO group) were provided at the same time. Centrifugation was performed at 1000 rpm for 1 minute, and the enzyme and the compounds were mixed. 2.5 μL of 4× substrate solution was added to the 384-well plate, centrifugation was performed at 1000 rpm for 1 minute, 2.5 μL of 4× ATP solution was added to the 384-well plate, centrifugation was performed at 1000 rpm for 1 minute to start the enzyme reaction, and incubation was performed at room temperature for 1.5 hours.
The final concentration of each component of the ROCK2 reaction was: ROCK2: 1 nM, substrate: 500 nM, ATP: 6 uM, and the final concentration range of the test compounds was: 100 nM to 5 pM.
3) 4× Streptavidin-XL-665 detection solution was prepared according to experimental requirements.
4) After the enzyme reaction was completed, 5 ul of 4× Streptavidin-XL-665 detection solution was added to each well of the 384-well plate, and centrifugation was performed at 1000 rpm for 1 minute. 5 μL of 4×STK Antibody-cryptate detection antibody solution was added to each well of the 384-well plate, centrifugation was performed at 1000 rpm for 1 minute, and incubation was performed for 1 hour at room temperature.
5) After antibody incubation was completed, the signal value of each well was measured by the HTRF program on an Envision plate reader.
1) Taking the enzyme solution blank control group as 100% inhibition rate and the negative control group (DMSO group) as 0% inhibition rate, the percentage inhibition rate corresponding to each concentration of the test compound was calculated.
2) In the GraphPad Prism software, a nonlinear regression analysis was performed on the logarithm of the concentrations of the test compounds and the corresponding percentage inhibition rates to obtain the half-inhibitory concentrations (IC50) of the test compounds.
The ROCK2 kinase inhibitor activities (IC50) of the compounds detected by this method are as follows: […]

Sequence of ROCK2 (O75116 whole entry): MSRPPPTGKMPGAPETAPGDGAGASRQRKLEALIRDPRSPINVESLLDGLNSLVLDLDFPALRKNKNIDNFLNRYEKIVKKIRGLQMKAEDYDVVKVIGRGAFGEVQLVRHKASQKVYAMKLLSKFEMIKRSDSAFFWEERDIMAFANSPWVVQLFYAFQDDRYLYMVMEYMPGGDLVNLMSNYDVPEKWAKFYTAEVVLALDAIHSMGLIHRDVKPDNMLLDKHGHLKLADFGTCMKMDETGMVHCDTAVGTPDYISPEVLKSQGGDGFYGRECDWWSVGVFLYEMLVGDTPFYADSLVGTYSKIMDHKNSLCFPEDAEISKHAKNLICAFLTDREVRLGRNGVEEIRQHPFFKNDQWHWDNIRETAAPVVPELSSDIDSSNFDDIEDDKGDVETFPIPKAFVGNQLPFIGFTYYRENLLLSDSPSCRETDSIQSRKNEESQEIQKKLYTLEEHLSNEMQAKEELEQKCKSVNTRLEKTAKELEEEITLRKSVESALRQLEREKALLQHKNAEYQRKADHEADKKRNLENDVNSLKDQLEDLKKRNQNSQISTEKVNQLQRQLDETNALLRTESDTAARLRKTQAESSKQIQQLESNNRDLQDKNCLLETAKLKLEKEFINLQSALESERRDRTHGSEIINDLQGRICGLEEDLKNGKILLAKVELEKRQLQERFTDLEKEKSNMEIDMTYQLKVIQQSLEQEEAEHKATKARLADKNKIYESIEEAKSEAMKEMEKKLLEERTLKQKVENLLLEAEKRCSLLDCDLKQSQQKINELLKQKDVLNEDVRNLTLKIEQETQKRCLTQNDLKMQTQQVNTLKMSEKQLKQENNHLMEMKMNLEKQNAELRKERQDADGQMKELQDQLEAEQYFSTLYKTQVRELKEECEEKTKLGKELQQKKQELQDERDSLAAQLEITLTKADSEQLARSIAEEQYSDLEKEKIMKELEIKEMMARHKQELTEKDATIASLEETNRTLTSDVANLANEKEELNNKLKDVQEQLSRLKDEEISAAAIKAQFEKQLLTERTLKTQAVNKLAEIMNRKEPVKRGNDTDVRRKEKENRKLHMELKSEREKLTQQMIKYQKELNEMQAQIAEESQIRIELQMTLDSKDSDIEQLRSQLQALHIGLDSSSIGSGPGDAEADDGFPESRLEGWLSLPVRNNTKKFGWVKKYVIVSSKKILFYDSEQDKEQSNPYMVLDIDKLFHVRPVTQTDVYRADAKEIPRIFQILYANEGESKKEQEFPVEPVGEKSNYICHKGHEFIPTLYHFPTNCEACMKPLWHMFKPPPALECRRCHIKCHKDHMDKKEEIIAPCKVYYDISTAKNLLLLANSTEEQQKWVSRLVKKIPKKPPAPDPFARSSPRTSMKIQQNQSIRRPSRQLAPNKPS

Compound “4-((S)-3-amino-1-oxy-1-(thieno[2,3-c]pyridin-2-ylamino)prop-2-yl)benzyl(1s,4R)-4-((nitrooxy)methyl)cyclohexane-1-carboxylic acid [Example 27]” has an IC50 of 4.62 nM.
`NCC(C(=O)Nc1ccc2cnccc2c1)c1ccc(CO[N+](=O)[O-])cc1` (stereo not drawn) [Example 2, (3-amino-1-(isoquinolin-6-ylamino)-1-oxoprop-2-yl)benzyl nitrate] was tested, and the IC50 was 5.59 nM.
For `NCC(C(=O)Nc1cc2ccncc2s1)c1ccc(CCO[N+](=O)[O-])cc1` (stereo not drawn) [Example 3], the IC50 was 10.8 nM.
Compound `NC[C@@H](C(=O)Nc1ccc2cnsc2c1)c1ccc(CO[N+](=O)[O-])cc1` [Example 4, (S)-4-(3-amino-1-(benzo[d]isothiazol-6-ylamino)-1-oxoprop-2-yl)benzyl nitrate] has an IC50 of 1.78 nM.
`NCC(C(=O)Nc1cc2ccncc2s1)c1ccc(C(CO[N+](=O)[O-])O[N+](=O)[O-])cc1` (stereo not drawn) [Example 5, 1-(4-(3-amino-1-oxo-1-(thieno[2,3-c]pyridin-2-ylamino)prop-2-yl)phenyl)ethane-1,2-dinitrate] showed an IC50 of 19.2 nM.
Work on `NC[C@@H](C(=O)Nc1cc2ccncc2s1)c1ccc(COC(=O)C2CC(O[N+](=O)[O-])C2)cc1` (stereo partly drawn) [Example 6] yielded an IC50 of 1.3 nM.
Compound `NCC(C(=O)Nc1cc2ccncc2s1)c1ccc(CCCCO[N+](=O)[O-])cc1` (stereo not drawn) [Example 10, 4-(4-(3-amino-1-oxo-1-(thieno[2,3-c]pyridin-2-ylamino)prop-2-yl)phenyl)butyl nitrate] has an IC50 of 19.3 nM.
For `NC[C@@H](C(=O)Nc1cc2c(F)cncc2s1)c1ccc(CO[N+](=O)[O-])cc1` [Example 12, (S)-4-(3-amino-1-((4-fluorothieno[2,3-c]pyridin-2-yl)amino)-1-oxoprop-2-yl)benzyl nitrate], the IC50 was 2.95 nM.
For `NCC(C(=O)Nc1cc2ccncc2s1)c1ccc(OC(CO[N+](=O)[O-])CO[N+](=O)[O-])cc1` (stereo not drawn) [Example 14, 2-(4-(3-amino-1-oxo-1-(thieno[2,3-c]pyridin-2-ylamino)propan-2-yl)phenoxy)propane-1,3-dinitrate], the IC50 was 77.3 nM.
Compound `NC[C@@H](C(=O)Nc1cc2ccncc2s1)c1ccc(COC(=O)C2CCC(O[N+](=O)[O-])CC2)cc1` (stereo partly drawn) [Example 15, (S)-4-(3-amino-1-oxy-1-(thieno[2,3-c]pyridin-2-ylamino)prop-2-yl)benzyl 4-(nitrooxy)cyclohexane-1-carboxylic acid] has an IC50 of 1.63 nM.
Compound `NC[C@@H](C(=O)Nc1cc2ccncc2s1)c1ccc(COC(=O)c2ccc(CCO[N+](=O)[O-])cc2)cc1` [Example 16, (S)-4-(3-amino-1-oxy-1-(thieno[2,3-c]pyridin-2-ylamino)prop-2-yl)benzyl 4-(2-(nitrooxy)ethyl)benzoate] has an IC50 of 1.86 nM.
Work on `Cc1cc(CCO[N+](=O)[O-])ccc1C(=O)OCc1ccc([C@@H](CN)C(=O)Nc2cc3ccncc3s2)cc1` [Example 17] yielded an IC50 of 5.44 nM.
With `Cc1ccc(CCO[N+](=O)[O-])cc1C(=O)OCc1ccc([C@@H](CN)C(=O)Nc2cc3ccncc3s2)cc1` [Example 18] the IC50 was 4.62 nM.
For `NC[C@@H](C(=O)Nc1cc2ccncc2s1)c1ccc(COC(=O)[C@H]2CC[C@@H](O[N+](=O)[O-])CC2)cc1` [Example 19, 4-((S)-3-amino-1-oxy-1-(thieno[2,3-c]pyridin-2-ylamino)prop-2-yl)benzyl(1s,4R)-4-(nitrooxy)cyclohexane-1-carboxylate], the IC50 was 1.33 nM.
With `NC[C@@H](C(=O)Nc1cc2ccncc2s1)c1ccc(COC(=O)[C@H]2CC[C@H](O[N+](=O)[O-])CC2)cc1` [Example 20, 4-((S)-3-amino-1-oxy-1-(thieno[2,3-c]pyridin-2-ylamino)prop-2-yl)benzyl(1r,4S)-4-(nitrooxy)cyclohexane-1-carboxylate] the IC50 was 1.43 nM.
`NC[C@@H](C(=O)Nc1cc2ccncc2s1)c1ccc(COC(=O)c2cccc(CO[N+](=O)[O-])c2)cc1` [Example 21, (S)-4-(3-amino-1-oxo-1-(thieno[2,3-c]pyridin-2-ylamino)prop-2-yl)benzyl 3-((nitrooxy)methyl)benzoate] was tested, and the IC50 was 1.23 nM.
With `NC[C@@H](C(=O)Nc1cc2ccncc2s1)c1ccc(COC(=O)c2ccc(CO[N+](=O)[O-])cc2)cc1` [Example 22, (S)-4-(3-amino-1-oxo-1-(thieno[2,3-c]pyridin-2-ylamino)prop-2-yl)benzyl 4-((nitrooxy)methyl)benzoate] the IC50 was 1.6 nM.
`NC[C@@H](C(=O)Nc1cc2ccncc2s1)c1ccc(COC(=O)C2CC(CO[N+](=O)[O-])C2)cc1` (stereo partly drawn) [Example 23, (S)-4-(3-amino-1-oxy-1-(thieno[2,3-c]pyridin-2-ylamino)propan-2-yl)benzyl 3-((nitrooxy)methyl)cyclobutane-1-carboxylate] was tested, and the IC50 was 1.13 nM.
Work on `NC[C@@H](C(=O)Nc1cc2ccncc2s1)c1ccc(COC(=O)NCCO[N+](=O)[O-])cc1` [Example 24, (S)-4-(3-amino-1-oxy-1-(thieno[2,3-c]pyridin-2-ylamino)prop-2-yl)benzyl(2-(nitrooxy)ethyl)carbamate] yielded an IC50 of 0.45 nM.
`NC[C@@H](C(=O)Nc1cc2ccncc2s1)c1ccc(COC(=O)[C@H]2C[C@H](O[N+](=O)[O-])C2)cc1` [Example 25, 4-((S)-3-amino-1-oxo-1-(thieno[2,3-c]pyridin-2-ylamino)propan-2-yl)benzyl (1r,3S)-3-(nitrooxy)cyclobutane-1-carboxylate] was tested, and the IC50 was 1.78 nM.
In the case of `CC(CO[N+](=O)[O-])(CO[N+](=O)[O-])C(=O)OCc1ccc([C@@H](CN)C(=O)Nc2cc3ccncc3s2)cc1` [Example 26, (S)-4-(3-amino-1-oxo-1-(thieno[2,3-c]pyridin-2-ylamino)prop-2-yl)benzyl 2-methyl-3-(nitrooxy)-2-((nitrooxy)methyl)propionate], the IC50 is reported as 9.9 nM.
Work on `NC[C@@H](C(=O)Nc1cc2ccncc2s1)c1ccc(COC(=O)c2cccc(CCO[N+](=O)[O-])c2)cc1` [Example 28, (S)-4-(3-amino-1-oxy-1-(thieno[2,3-c]pyridin-2-ylamino)prop-2-yl)benzyl 3-(2-(nitrooxy)ethyl)benzoate] yielded an IC50 of 1.32 nM.
`NC[C@@H](C(=O)Nc1cc2ccncc2s1)c1ccc(COC(=O)CC2(CO[N+](=O)[O-])CC2)cc1` [Example 29, (S)-4-(3-amino-1-oxy-1-(thieno[2,3-c]pyridin-2-ylamino)prop-2-yl)benzyl 2-(1-((nitrooxy)methyl)cyclopropyl acetate] gave an IC50 of 2.74 nM.
`CC(C)(CCCO[N+](=O)[O-])C(=O)OCc1ccc([C@@H](CN)C(=O)Nc2cc3ccncc3s2)cc1` [Example 30, (S)-4-(3-amino-1-oxy-1-(thieno[2,3-c]pyridin-2-ylamino)prop-2-yl)benzyl 2,2-dimethyl-5-(nitrooxy)valerate] was tested, and the IC50 was 16.5 nM.
Compound `NC[C@@H](C(=O)Nc1cc2ccncc2s1)c1ccc(COC(=O)CCCCCO[N+](=O)[O-])cc1` [Example 31, (S)-4-(3-amino-1-oxy-1-(thieno[2,3-c]pyridin-2-ylamino)propan-2-yl)benzyl 6-(nitrooxy)hexanoate] has an IC50 of 1.58 nM.
In the case of `NC[C@@H](C(=O)Nc1cc2ccncc2s1)c1ccc(COC(=O)C2(CO[N+](=O)[O-])CC2)cc1` [Example 32, (S)-4-(3-amino-1-oxy-1-(thieno[2,3-c]pyridin-2-ylamino)propan-2-yl)benzyl 1-((nitrooxy)methyl)cyclopropane carboxylate], the IC50 is reported as 3.11 nM.
For `NC[C@@H](C(=O)Nc1cc2cnccc2s1)c1ccc(COC(=O)CC[C@H](CO[N+](=O)[O-])O[N+](=O)[O-])cc1` [Example 33, 4-((S)-3-amino-1-oxy-1-(thieno[2,3-c]pyridin-2-ylamino)prop-2-yl)benzyl(R)-4,5-bis(nitrooxy)valeric acid], the IC50 was 1.18 nM.
Work on `NC[C@@H](C(=O)Nc1cc2ccncc2s1)c1ccc(COC(=O)[C@H]2C[C@@H](CO[N+](=O)[O-])C2)cc1` [Example 34, (1S,3R)-4-((S)-3-amino-1-oxy-1-(thieno[2,3-c]pyridin-2-ylamino)propan-2-yl)benzyl 3-((nitrooxy)methyl)cyclobutane-1-carboxylate] yielded an IC50 of 1.04 nM.
`NC[C@@H](C(=O)Nc1cc2ccncc2s1)c1ccc(COC(=O)[C@H]2C[C@H](CO[N+](=O)[O-])C2)cc1` [Example 35, (1R,3S)-4-((S)-3-amino-1-oxy-1-(thieno[2,3-c]pyridin-2-ylamino)propan-2-yl)benzyl 3-((nitrooxy)methyl)cyclobutane-1-carboxylate] showed an IC50 of 6.5 nM.
For `NC[C@@H](C(=O)Nc1cc2ccncc2s1)c1ccc(COC(=O)C2CC(CO[N+](=O)[O-])(CO[N+](=O)[O-])C2)cc1` [Example 36, (S)-4-(3-amino-1-oxy-1-(thieno[2,3-c]pyridin-2-ylamino)prop-2-yl)benzyl 3,3-bis((nitrooxy)methyl)cyclobutane-1-carboxylate], the IC50 was 32.5 nM.
